Experimental data: US20230210833A1, “USE OF IRAK4 INHIBITOR IN TREATMENT OF ACUTE LUNG INJURY ALI/ARDS” (SHANGHAI LEADINGTAC PHARMACEUTICAL CO., LTD., priority 2020, published 2023)

Columns and labels:
Type in all cases: in vivo, Balb/c mice
IL-6 = IL-6 in alveolar lavage fluid of LPS-induced ALI/ARDS mice (Elisa); conditions: for Inhibition of IL-6 (%): oral single dose 0.5 h before LPS (146 150 mg/kg, 41 75 mg/kg, 450 100 mg/kg, dexamethasone 10 mg/kg), alveolar lavage fluid supernatant 4 hours after LPS
Experimental: (§1) After LPS induced model for 4 hours, all mice were anesthetized and alveolar lavage fluid was collected, and the supernatant was collected by centrifuging alveolar lavage fluid. The levels of TNF-α, IL-6 and IL-1β in the supernatant were detected by enzyme-linked immunosorbent assay (Elisa).

[1] = Body weight of LPS-induced ALI/ARDS mice; conditions: oral dosing 0.5 h before and 6 hours after LPS (146 150 mg/kg, 41 75 mg/kg, 450 100 mg/kg, dexamethasone 10 mg/kg); 24 hours after LPS; Mean±SEM
Experimental: (§2) LPS induced model was given again after 6 hours, and the dose was the same as that of the first administration. After 24 hours from LPS induced model, all mice were weighed, the animals used were anesthetized and the alveolar lavage fluid was collected, the lower cell pellets were collected after centrifugation, and the cells were resuspended, fixed with methanol and stained with Wright-Giemsa, and the eosinophils, neutrophils, macrophages and lymphocytes were counted by an optical microscope. The mice were euthanized with excess carbon dioxide. After the maximum blood volume was collected from the heart, the left lung was fixed with neutral formaldehyde and embedded in paraffin, sliced and HE staining, photographed to observe the lung injury and score.

[2] = system: LPS-induced ALI/ARDS model mice; experiment: Cell count of alveolar lavage fluid in LPS-induced ALI/ARDS mice; conditions: 24 hours after LPS, oral dosing 0.5 h before and 6 hours after LPS
Experimental: as §2

[3] = system: LPS-induced ALI/ARDS model mice; experiment: Lung pathology score (HE staining) in LPS-induced ALI/ARDS mice; conditions: left lung HE staining, 24 hours after LPS; four categories each scored 0 to 4
Experimental: LPS induced model was given again after 6 hours, and the dose was the same as that of the first administration. […] The mice were euthanized with excess carbon dioxide. After the maximum blood volume was collected from the heart, the left lung was fixed with neutral formaldehyde and embedded in paraffin, sliced and HE staining, photographed to observe the lung injury and score.
Lung pathology scoring criteria: (1) alveolar congestion; (2) hemorrhage; (3) neutrophil infiltration into airspace or vascular wall; (4) alveolar wall/thickness formed by hyaline membrane.

IL-1β = IL-1β in alveolar lavage fluid of LPS-induced ALI/ARDS mice (Elisa); conditions: for Inhibition of IL-1β (%): oral single dose 0.5 h before LPS (146 150 mg/kg, 41 75 mg/kg, 450 100 mg/kg, dexamethasone 10 mg/kg), alveolar lavage fluid supernatant 4 hours after LPS
Experimental: as §1

TNF-α = TNF-α in alveolar lavage fluid of LPS-induced ALI/ARDS mice (Elisa); conditions: for Inhibition of TNF-α (%): oral single dose 0.5 h before LPS (146 150 mg/kg, 41 75 mg/kg, 450 100 mg/kg, dexamethasone 10 mg/kg), alveolar lavage fluid supernatant 4 hours after LPS
Experimental: as §1

[4] = after acting for 4 hours, comparison between compounds 146, 450, 41 and model group

SMILES | Inhibition of IL-6 (%) (IL-6) | Weight [1] | Eosinophils (*10^4) [2] | Lymphocytes (*10^4) [2] | Macrophages (*10^4) [2] | Neutrophils (*10^4) [2] | Total cell count (*10^4) [2] | Pulmonary pathology score [3] | Inhibition of IL-1β (%) (IL-1β) | Inhibition of TNF-α (%) (TNF-α) | IL-6 inhibitory effect (in words) (IL-6; [4]) | IL-1β inhibitory effect (in words) (IL-1β; [4]) | TNF-α inhibitory effect (in words) (TNF-α; [4])
Cc1cc(-c2nc(C(=O)Nc3cc4oc(N5CCOCC5)nc4nc3N3CC[C@@H](O)C3)co2)ccn1 [Compound 41, (R)-N-(5-(3-hydroxypyrrolidine-1-yl)-2-morpholinoxazo [4,5-b]pyridine-6-yl)-2-(2-methylpyridine-4-yl) oxazole-4-formamide] | 21.40% | 19.45 ± 0.71 g | 2.81 *10^4 | 3.71 *10^4 | 89.06 *10^4 | 466.17 *10^4 | 561.75 *10^4 | 4.17 | 52.00% | 12.90% |  |  | 
C[C@@H]1C[C@H]2[C@@H]3CCC4=CC(=O)C=C[C@]4(C)[C@@]3(F)[C@@H](O)C[C@]2(C)[C@@]1(O)C(=O)CO [Dexamethasone, dexamethasone] | 0.00% | 18.91 ± 0.74 g | 3.17 *10^4 | 3.25 *10^4 | 108.20 *10^4 | 361.63 *10^4 | 476.25 *10^4 | 3.50 | 0.00% | 128.70% |  |  | 
CC[C@@H]1[C@H](F)C(=O)N[C@@H]1COc1nccc2cc(C(N)=O)c(OC)cc12 [Compound 450] | 36.40% | 18.68 ± 0.4 g | 3.11 *10^4 | 2.74 *10^4 | 74.91 *10^4 | 386.74 *10^4 | 467.50 *10^4 | 4.83 | 43.90% | 28.70% | significantly lower than that of compound 146 | significantly lower than that of compound 146 | significantly lower than that of compound 146
